In general, pKd refers to −log10 of the Kd, conventionally taken in molar units.

pKd: −log10 of the molar value. Entries after “also recorded” stand apart in the source; their conditions may differ.

Data set [1] can be described thus: Photophysical properties of DFAME, DFHO and RNA complexes (Beetroot study). Format: physicochemical. From the text:
dsDNA encoding the top-performing RNA sequences from the brightest bacterial colonies was PCR amplified from the purified plasmids. PCR products were subjected to gel electrophoresis in 2% TBE gel, and the PCR product band corresponding to the correct size was excised from gel and further purified with PCR purification columns (Qiagen) and in vitro transcribed using an AmpliScribe T7-Flash Transcription Kit (Epicenter). The resulting RNA was then purified using Zymo RNA concentrator columns and quantified by absorbance using a Thermo Scientific NanoDrop 2000 spectrophotometer. For absorption, excitation and emission spectra measurements, “excess RNA” conditions and limiting amount of fluorophore was used to ensure that no free fluorophore contributes to the absorbance or fluorescence signal. The RNA concentration used for fluorescence and absorbance measurements was 20 μM and 50 μM, respectively, while the dye concentration was 2 μM and 5 μM, respectively. All in vitro RNA properties were measured in 40 mM HEPES pH 7.4, 100 mM KCl, 5 mM MgCl2 buffer, unless specified.
Extinction coefficient was calculated based on Beer's law. Briefly, absorbance spectrum of 5 μM DFAME, Beetroot-DFAME, or Corn-DFAME was measured using a Thermo Scientific NanoDrop 2000 spectrophotometer with cuvette capability. Extinction coefficient was calculated by dividing peak absorbance value by the concentration of fluorophore alone, or RNA-fluorophore complex.
Quantum yield was determined by comparing the integral of the emission spectra for DFAME or RNA-DFAME complex with the corresponding integral obtained from Rhodamine B solution. These integral values were plotted against the absorbance values corresponding to the excitation wavelength. The slopes from the above plots were calculated for determining quantum yield. Quantum yield was calculated by multiplying the quantum yield of Rhodamine B by the slope of DFAME or RNA-DFAME complex, then divided by the slope of Rhodamine B.

The test system of data set [2] is HEK293T cells. Briefly: Cytotoxicity of DFAME, MTT assay after illumination. Format: cell-based. To be noted: 10 μM, illuminated for 10 minutes. As to the method:
FIG. 31A is a graph showing the results of an experiment evaluating fluorescence of DFAME when mixed with cells. An important criteria for a fluorogenic dye is that it must have very low fluorescence when mixed with cells. To test this, 10 μM DFAME was incubated with cultured HEK293T cells and the fluorescence intensity of the DFAME-incubated cells was measured. […] Although the background fluorescence in cells induced by DFAME (n=48 cells) was higher than DFHO (n=47 cells) or DFHBI-1T (n=44 cells), it was reasoned that DFAME could be used if enough fluorogenic aptamer is used in cells. Data were collected from three independent cell cultures. Values are means±s.d. FIG. 31B is a graph showing the cytotoxicity of DFAME. To apply a fluorogenic dye in cells, it is critical that this dye has minimal cytotoxicity. To test the cytotoxicity of DFAME, HEK293T cells were first incubated with 10 μM DFAME, then illuminated for 10 minutes using a Nikon Intensilight C-HGFIE 130 W mercury lamp with the TRITC filter set. Control cells were illuminated under identical conditions either with 0.2% DMSO (illuminated with the TRITC filter set) or 10 μM malachite green (illuminated with the Cy5 filter set). […] MTT absorbance readings were performed at 550 nm with 650 nm absorbance used for background subtraction. […]
(Formazan colour is commonly taken as a measure of viable cells.)

Data set [3] concerns HEK293T cells. Put plainly: Imaging Beetroot in HEK293T cells. Format: cell-based. To be noted: Tornado circular RNA, tRNA or F30-tRNA scaffold, 10 μM DFAME, 5 mM MgCl2. As to the method:
FIGS. 35A-35B show imaging Beetroot in HEK293T cells. To test whether Beetroot could be imaged in HEK293T cells, Beetroot was expressed in Tornado. […] FIG. 35B are images showing HEK293T cells which were transiently transfected with Beetroot-expressing plasmids. About 36 hours after transfection, these transfected HEK293T cells were incubated with 10 μM DFAME and 5 mM MgCl2 for 1 hour prior to imaging. Detectable levels of red fluorescence were not observed in HEK293T cells. Data shown here is a representative image from three independent cell cultures. Scale bar, […].
Prior to imaging experiments, HEK293T cells were incubated with 1 μl of Hoechst 33342 (Thermo Fisher Scientific, H3570) per 2 ml of imaging media (phenol red-free Dulbeco's modified Eagle's medium (Thermo Fisher Scientific 31053-028) supplemented with 10% fetal bovine serum (Corning 35-010-CV), 100 U ml-1 of penicillin and […] of streptomycin, 1× GlutaMAX (Thermo Fisher Scientific, 35050-061) and 1 mM sodium pyruvate (Thermo Fisher Scientific, 11360-070)). For imaging experiments of RNA-fluorophore complex, HEK293T cells were incubated with imaging media supplemented with a final concentration of 10 μM fluorophore (DFHO or DFAME) and 5 mM MgCl2 for one hour prior to imaging.

In data set [4] the test system is Beetroot. Put plainly: Beetroot homodimer dissociation, serial dilution and non-denaturing gel electrophoresis. Format: binding. To be noted: dilution 1000 nM to 1.4 nM, 20° C., 12 hours; read-out: Homodimerization dissociation constant (Kd). As to the method: FIGS. 33A-33C provide the dissociation constant (Kd) of Beetroot homodimer. […] These RNAs were incubated at 20° C. for 12 hours and then analyzed using non-denaturing gel electrophoresis (FIG. 33A). The fraction of Beetroot monomer (FIG. 33B) and Beetroot dimer (FIG. 33C) were quantified after SYBR Gold staining. […] The RNA band marked with an asterisk (*) reflects an RNA side product from in vitro transcription. The same side product band was also observed in FIGS. 27B-27C. Quantification shown in […] is based on two independent experiments. FIG. 33D are images showing genetic encoding of simple macromolecular RNA assemblies in cells using Corn when circular RNAs containing 3 and 5 copies of Corn were expressed in HEK293T cells. Clusters of these Corn-containing RNAs were observed as large intracellular puncta. Data shown here is a representative image from three independent cell cultures. Scale bar, 20 μm. FIG. 33E is a graph showing the quantification of the fraction of Corn and Beetroot in the cell that accumulates in puncta. As the valency of Corn increases from three to five, the fraction of Corn participating in the RNA assembly increases from 28±12% to 57±14%. Compared to 5× Corn, a fraction of 27±11% of 5× Beetroot are participating in the Beetroot RNA assembly. Values are means±s.d. FIG. 33F is a graph showing quantification of RNA assembly size in cells. […]

The nature of data set [5]: Fluorescence activation of DFAME by aptamers in vitro. It is filed as biochemical. To be noted: in vitro. As to the method:
(§1) To test whether Beetroot can activate DFHO, the fluorescence emission spectrum of the Beetroot-DFHO complex was measured. In brief, 20 μM Beetroot and 2 μM DFHO were mixed, and the fluorescence emission of the Beetroot-DFHO complex was measured. […] To test whether Beetroot can activate DFHBI-1T, the fluorescence emission spectrum of the Beetroot-DFHBI-1T complex was measured using the same protocol described in FIG. 32A. […] To test whether Beetroot can activate BI, the fluorescence emission spectrum of the Beetroot-BI complex was measured using the same protocol described in FIG. 32A. […] To test whether Corn can activate DFAME, the fluorescence emission spectrum of the Corn-DFAME complex was measured using the same protocol described in FIG. 32A.
The eluted RNAs were then ethanol precipitated, reverse transcribed, PCR amplified and in vitro transcribed to yield the pool for the next SELEX round. The presence of fluorescent RNA species in each pool was assessed by mixing 20 μM RNA and 10 μM DFAME and measuring fluorescence emission of this solution on a fluorometer in comparison with the fluorophore alone. At this point, RNAs were cloned into bacterial expression plasmids for FACS-based screening.
dsDNA encoding the top-performing RNA sequences from the brightest bacterial colonies was PCR amplified from the purified plasmids. […] The resulting RNA was then purified using Zymo RNA concentrator columns and quantified by absorbance using a Thermo Scientific NanoDrop 2000 spectrophotometer. For absorption, excitation and emission spectra measurements, “excess RNA” conditions and limiting amount of fluorophore was used to ensure that no free fluorophore contributes to the absorbance or fluorescence signal. The RNA concentration used for fluorescence and absorbance measurements was 20 μM and 50 μM, respectively, while the dye concentration was 2 μM and 5 μM, respectively. All in vitro RNA properties were measured in 40 mM HEPES pH 7.4, 100 mM KCl, 5 mM MgCl2 buffer, unless specified.

Data set [6] can be described thus: Fluorescence emission of Beetroot with BI. It is filed as biochemical. To be noted: 20 μM RNA, 2 μM dye. As to the method:
as §1

Data set [7] concerns Corn. Put plainly: Beetroot-Corn heterodimer formation, nondenaturing electrophoretic analysis. Format: binding. To be noted: equimolar mixture, heat-denatured and cooled. As to the method: FIG. 27B is an image showing that Beetroot is a dimer in vitro. To test this, nondenaturing electrophoretic analysis was performed on a wild-type Beetroot and a mutant Beetroot with mutations in the G-quadruplex that are expected to disrupt any putative dimer formation. […] The RNA band marked with an asterisk (*) reflects an RNA side product from in vitro transcription. […] To test whether Beetroot and Corn can form heterodimers in vitro, nondenaturing electrophoretic analysis was performed on Beetroot, Corn, and a Beetroot-Corn equimolar mixture to measure heterodimer formation. If Beetroot (107 nt) and Corn (250 nt) are orthogonal dimers, two distinct molecular species would be expected: dimeric Beetroot and dimeric Corn. On the other hand, if Beetroot-Corn heterodimers are formed, a third molecular species, reflecting a Beetroot-Corn heterodimer, with a molecular weight in between dimeric Beetroot and dimeric Corn, would be expected. […] In-gel staining with DFAME and DFHO also confirmed the identity of the putative dimeric species. The RNA band marked with an asterisk (*) reflects an RNA side product from in vitro transcription. A final concentration of 350 nM RNA was used in each lane. […]

Data set [8] can be described thus: Fluorescence emission of Beetroot with DFHBI-1T. It is filed as biochemical. To be noted: 20 μM RNA, 2 μM dye. As to the method: as §1
Data set [9] is described as follows: Fluorescence emission of Beetroot with DFHO. To be noted: 20 μM Beetroot, 2 μM DFHO. It is filed as biochemical. As to the method: as §1

Take `COC(=O)/C=C/C1=NC(=C\c2cc(F)c(O)c(F)c2)/C(=O)N1C` [DFAME, methyl 3-((Z)-4-(3,5-difluoro-4-hydroxybenzylidene)-1-methyl-5-oxo-4,5-dihydro-1H-imidazol-2-yl)acrylate]: in [1], the Emission maximum is 641 nm and the Excitation maximum worked out at 508 nm. The Fluorescence in solution entry in [1] (10 μM) is recorded as “very low red fluorescence”. Further, the Extinction coefficient in [1] (DFAME alone, at 514 nm, pH 7.4 buffer) is reported as 32,500 M^−1cm^−1. For the same molecule, the “Brightness (extinction coefficient × quantum yield)” value in data set [1] (relative to Corn-DFHO) worked out at 1.3. In data set [1] (versus Rhodamine B), this molecule registered a Fluorescence quantum yield of 0.0029. In [2], the Cytotoxicity result is given as “low cytotoxicity”.
As for “Beetroot: red-fluorescent dimeric fluorogenic RNA aptamer binding DFAME, SEQ ID NO: 96 (GUUAGGCAGAGGUGGGUGGUGUGGAGGAGUAUCUGUC; RNA, backbone not given here)”, in data set [3], the “Red fluorescence in cells” value is listed as “not observed”. For the same molecule, the pKd in data set [4] was > 9.00. Besides, the “Fold fluorescence enhancement of DFAME” value in data set [5] is “approximately 40 fold”. Moreover, the “Binding and activation of BI fluorescence” value in [6] is “cannot bind and activate”. Besides, the “Heterodimer formation with Corn” value in data set [7] is recorded as “no mixed Corn-Beetroot heterodimers”. The “Binding and activation of DFHBI-1T fluorescence” value in data set [8] was “cannot bind and activate”. Further, in data set [9], the “Binding and activation of DFHO fluorescence” value was “weakly binds and activates; also recorded: only weakly bind and activate”.
